According to patent US20100048545A1, “Compounds and Compositions for Use in the Prevention and Treatment of Disorders of Fat Metabolism and Obesity” (INNODIA INC., priority 2006, published 2010):
Entries after “also recorded” stand apart in the source; their conditions may differ. Read-outs that look alike come from different tables or passages of the source.

Key:
[1] = system: diet induced obese (DIO) animals; test: Fixed dose of 4-hydroxyisoleucine in diet induced obese (DIO) animals, 21 days; type: in vivo, C57BL/6 mice; conditions: for Significance vs controls (P; body weight and body weight gain): 2 way ANOVA, Bonferroni
Procedure: C57BL/6 mice were fed a high fat diet (60% fat) for 6 weeks. […] This regime was continued for the remaining 21 day period and the dose given was not adjusted as the mice lost body weight. This method of dosing was designed to mimic the human situation when the quantity of drug given is not adjusted with progressive body weight loss. […] Statistical analysis of the data was performed using a 2 way ANOVA followed by Bonferroni comparisons. Food intake was measured daily and then combined over a 7 day period to calculate total consumption during each week of drug administration.

DIO-mice = conditions: for food consumption: 4-OH 50 or 100 mg/kg
Text: The objective of this study was to evaluate the effect of chronic administration of 4-hydroxyisoleucine (4-OH, compound 14a) and Rosiglitazone, administered alone or in combination, on food consumption and body weight gain of DIO-mice. Both parameters were monitored for 1 week prior to the commencement of treatment, then for the 28 days of treatment and for an additional 7 days post-treatment.
A total of 72 animals were used in the study. The animals were distributed into 6 groups (5 treated, 1 control group, all on high fat diet). Each group was composed of 12 animals. The mice were randomized according to body weight and basal glycemia values following a 5±0.5 hour fasting period.
For the four weeks of treatment, the test articles were dissolved in reverse osmosis water. 4-Hydroxyisoleucine was aliquoted and kept at 4° C. (administration to groups 2, 3, and 6), while Rosiglitazone was freshly prepared daily and kept at 4° C. between the AM and PM administration to groups 4, 5, and 6. Control animals received reverse osmosis water twice daily (group 1). Mice from groups 2 and 3 were treated twice daily with 4-OH at 50 and 100 mg/kg, respectively. Animals from groups 4 and 5 received 1.5 and 5 mg/kg of Rosiglitazone, respectively. […] All groups were treated by oral gavage. Treatment commenced on Day 0 and ended on Day 28 (FIGS. 18A and 18C.
Food consumption was measured and averaged on a weekly basis beginning one week before the start of treatment as shown in FIGS. 18B and 18D as week −1. Similarly, food consumption was monitored for one week after treatment was stopped and is shown as week 5 in FIGS. 18B and 18D, In FIG. 18B, the food consumption over time for various treatment groups is illustrated by the bar graph.

[2] = system: lean mice subjected to a high fat diet; test: Prevention of obesity in lean mice subjected to a high fat diet, 21 days; type: in vivo, C57BL/6 mice; conditions: for transient increase of caloric intake: HFD
Text: C57BL/6 mice were fed a standard chow (LabDiet #5001; 12% of calories from fat) upon arrival and during the acclimation and pre-treatment periods. […] Treatment was initiated on the first day of experimentation (Day 1) and lasted 21 days. Animals from group 1 were fed the standard chow for the duration of the study and received water orally twice daily (ND: normal diet control). Mice from group 2 were given the high fat diet (HFD; 60% of calories from fat) starting on day 1 of experimentation and until day 21 of the study. These mice also received water by oral gavage and served as the high fat diet control (ND→HFD). Mice from group 3 and 4 were also fed the high fat diet upon start of treatment on day 1 and for the duration of the study but were treated orally twice daily with 100 and 150 mg/kg of 4-OH. From day 1 to day 21 of the study, body weight and food consumption were measured daily.

[3] = system: C57BL/6 mice fed a high fat diet; test: Analogs and isomers of 4-hydroxyisoleucine on body weight gain in C57BL/6 mice fed a high fat diet, 3 days; type: in vivo
Procedure: C57BL/6 mice were received at 6-7 weeks of age and fed a standard commercial chow for 1 week (acclimation period). The animals were randomized based on their body weight values, into control and treatment groups (n=6). Then, animals were shifted to a high fat diet (60% of calories from fat) and treated twice daily by oral gavage with 4-hydroxyisoleucine (4-OH, compound 14a) or different analogs and isomers of 4-OH at the dose of 100 mg per kg of body weight for 3 days. The control group (Control HFD) received vehicle (water) alone and a group was kept under standard chow (Control Lean). Body weight of the mice was recorded daily. Two different experiments were run and the effect on body weight gain of selected analogs and isomers according to the invention is presented in FIG. 30A (Experiment 1) and FIG. 30B (Experiment 2).

white adipocytes = test: Release and uptake of free fatty acids by ex vivo cultured white adipocytes of treated rats; type: cell-based, Wistar rats
Text: A total of 60 animals were used in the study. The animals were distributed into 6 groups; 1 group was fed standard chow, 1 group was fed a high fat, high sucrose (HFHS) diet with 28 days treatment, 1 untreated control group was fed a HFHS diet, and 1 untreated group was fed a HFHS diet, but with caloric intake restricted to match the caloric intake of the 4-OH treated animals (pair-fed animals). A fifth group was fed a high fat, high sucrose (HFHS) diet with 28 days treatment and received an acute oral administration of 4-OH just prior to experimentation on Day 29 of the study, and a sixth group was fed a HFHS diet, but with caloric intake restricted to match the caloric intake of the 4-OH treated animals receiving an acute oral administration of 4-OH on Day 29 of the study (pair-fed animals). Each group was composed of 10 animals. […] Body weights were measured once weekly from week 1 to week 4 of the study. The white adipose tissues of non-treated and treated rats were collected and cultured ex vivo. After 2 hours of culture, the relative release and uptake of free fatty acids by the adipocytes was measured in absence or presence of insulin, and standardized on the basis of DNA content of the cultures.

ATGL = test: RT-PCR gene expression in adipocytes of treated rats: ATGL; type: in vivo
Procedure: (§1) As the ex vivo studies on adipocytes indicated the lipolytic effect of drug was due to chronic exposure (see previous example), a role in gene regulation was assessed. RT-PCR was used to assess the expression of genes in the adipocytes from treated and control animals.

FABP4/ap2 = test: RT-PCR gene expression in adipocytes of treated rats: FABP4/ap2; type: in vivo
Procedure: as §1

[4] = HFHS diet, treated for 4 weeks (28 days)

C[C@@H]([C@H](C)O)[C@H](N)C(=O)O [Compound 14a, (2S,3R,4S)-4-Hydroxyisoleucine]
Significance vs controls (P; body weight and body weight gain) ([1]; 75 mg/kg, Days 7 to 21): P < 0.05
Significance vs controls (P; body weight and body weight gain) ([1]; 100 mg/kg, Days 7 to 21): P < 0.05
Significance vs controls (P; body weight and body weight gain) ([1]; 125 mg/kg, Days 6 to 21): P < 0.05
body weight plateau ([1]; 150 mg/kg bid): approximately 30 gm
body weight reduction ([1]; 150 mg/kg bid): 13 gm
visual appearance of animals ([1]; 150 mg/kg bid, day 21): visually indisingishable from lean mice of the same age
Significance vs controls (P; body weight and body weight gain) ([1]; 150 mg/kg, Days 5 to 21): P < 0.05
body weight ([1]; 50, 75, 100, 125 and 150 mg/kg bid, oral, fixed dose, 21 days): dose-dependent reduction in body weight
weight of fat tissues ([1]; end of treatment, epididymal fat (FIG. 17C)): concomitant reduction in the weight of fat tissues
food intake ([1]; highest doses, each of the 3 weeks, p<0.05): reduction in food intake at the highest doses administered
weight gain (DIO-mice; 4-OH 100 mg/kg twice daily): Moderation of weight gain was observed
food consumption (DIO-mice; first week of treatment, listed as 4-OH): food consumption decreased; also recorded: reduction in food consumption during the first week, but not after
food consumption (DIO-mice; remainder of the treatment phase): consumption returned to pre-treatment levels
weight gain (DIO-mice; Rosiglitazone 1.5 mg/kg with 4-OH 50 mg/kg, relative to the group treated with Rosiglitazone alone): able to modulate the weight gain induced by Rosiglitazone
transient increase of caloric intake ([2]; 100 mg/kg): less pronounced
transient increase of caloric intake ([2]; 150 mg/kg): completely abolished this increase of caloric intake
caloric intake ([2]; 150 mg/kg, day 2 to day 6 of treatment): even lower than mice fed the standard chow
weight gain induced by high fat feeding ([2]; 100 and 150 mg/kg orally twice daily, 21 days): completely prevented
epididymal fat weight ([2]; 100 and 150 mg/kg, after 21 days, p<0.01): prevented significantly the increase of weight of the epididymal fat
body weight compared to ND mice ([2]; highest dose (150 mg/kg), high fat diet): decreased body weight compared to mice fed the standard chow
body weight gain induced by the high fat diet ([3]; 100 mg/kg twice daily oral gavage): reduced body weight gain induced by the high fat diet
body weight compared to pre-treatment values ([3]; 100 mg/kg twice daily, one experiment (FIG. 30B)): reduced body weight of the mice as compared to pre-treatment values
fatty acid uptake in presence of insulin (white adipocytes; 2 hours of culture): not significantly different across all groups
basal fatty acid release (white adipocytes; 2 hours of culture, absence of insulin, vs pair-fed groups, p<0.01): significant increased basal fatty acid release
insulin stimulated release of fatty acid (white adipocytes; vs pair fed groups and HFHS control, p<0.01): significantly increased
expression of ATGL, increase (ATGL): more than two times
Increase (x times) in expression of ATGL (ATGL; [4]): 2.6 x times
expression of FABP4/ap2, increase (FABP4/ap2): 1.3-1.4 times
Increase (x times) in expression of FABP4/ap2 (FABP4/ap2; [4]): 1.4 x times
